Experimental data taken from patent US20190269771A1, “PEPTIDE MIMOTOPE THAT INDUCES AN IMMUNE RESPONSE AGAINST MYCOBACTERIUM TUBERCULOSIS LIPOARABINOMANNAN (LAM)” (priority 2017, published 2019).

Experiments:
[1] = system: rabbit polyclonal anti-LAM antibody; assay: Peptide ELISA binding assay with rabbit polyclonal anti-LAM antibody; details: for OD values, binding of rabbit polyclonal anti-LAM antibody by ELISA: coating 10 μg/ml
Experimental: The ELISA plate wells were coated with by adding each peptide (2 μg in 0.1M NaHCO3, pH 8.6) and incubating overnight at 4° C. After overnight incubation, plates were blocked with BSA (5 mg/ml) for 1 hour at 4° C. For controls, wells were coated with same amount of LAM or BSA. After washing with TBST, diluted 143 anti-LAM antibodies were added to the ELISA plate and incubated at room temperature for 1 hour. Plates were washed with TBST and HRP-conjugated secondary antibodies were added and incubated for 1 hour. After washing 3 times with TBST, 50 μl of the 1-Step™ Ultra TMB-ELISA (Thermo Scientific Co, Ltd) substrates was added in the dark. After color development, 50 μl of 2M sulfuric acid was added to stop the reaction and absorbance was measured at 450 nm.

[2] = system: two monoclonal antibodies against M. tuberculosis lipoarabinomannan (LAM); assay: Binding of recombinant M13 phages displaying the peptides to the anti-LAM mAbs; details: peptide displayed on the g3p minor coat protein of recombinant M13 phage
[3] = system: Mouse anti-LAM antibodies; assay: ELISA with serum from LAM vaccinated mice against various antigens; assay type: binding; details: Swiss-Webster mice vaccinated with LAM combined with alum; FIG. 2D
Experimental: To perform ELISAS, 96-well ELISA plates (Greiner Bio-One Catalogue #655-001) were coated with 10 μg of corresponding coating antigens: HS peptide, HSSR peptide, Baculovirus, SG peptide, SGSR peptide, or LAM resuspended in coating buffer (0.1M NaHCO3, pH 8.6). After overnight coating at 4° C., blocking (5% skim milk in PBS) was performed for 1 hour at room temperature. After washing 3 times with washing buffer (0.01% Tween-20 in PBS), mouse serum was added to the appropriate wells and binding proceeded at room temperature for 1 hour. […] After incubating for 1 hour at room temperature, the plate was washed 3 times with TBST and 50 μl 179 of the 1-Step™ Ultra TMB180 ELISA substrate (Thermo Scientific) was added. 50 ul of 2M sulfuric acid was then added to stop the reaction and absorbance was measured at 450 nm.

“CISLTEWSMWYRH [Peptide P8, previously published LAM mimotope peptide, reference compound]” was tested, and the “detection of KLH-conjugated peptide by rabbit anti-LAM polyclonal antibody above control” value ([1]; peptides conjugated to KLH vs scramble control, only at the 1:1000 dilution, FIG. 1B-E) was “could be specifically detected”.
With HSFKWLDSPRLR [HS peptide] the “OD values, binding of rabbit polyclonal anti-LAM antibody by ELISA” value ([1]; HS peptide experiment, FIG. 2B) was 0.45 and the “binding affinity with both mAbs” value [2] was “strong binding affinity”.
In the case of “KLH alone: keyhole limpet hemocyanin carrier protein [reference compound]”, the “binding by serum from LAM vaccinated mice” value [3] is reported as “not”.
For SGVYKVAYDWQH [SG peptide], the “OD values, binding of rabbit polyclonal anti-LAM antibody by ELISA” value ([1]; SG peptide experiment, FIG. 2C) was 0.32 and the “binding affinity with both mAbs” value [2] was “strong binding affinity”.
